Measured values taken from paper PMC9453454, “Design, synthesis, and anticancer activity of three novel palbociclib derivatives” (Frontiers in Oncology, 2022).

Columns and labels:
NCI-H460 cells [1] = assay: MTT in vitro cytotoxicity, NCI-H460; assay type: cell-based, human; conditions: NCI-H460 human lung cancer cells, MTT, 48 h; read-out: IC50
Procedure: (§1) Human lung cancer cells (NCI-H460, NCI-H1299, and A549), human breast cancer cells (MDA-MB-231, MDA-MB-453, and MCF-7), human liver cancer cells (Huh-7 and HepG2), human colon cancer cells (coca-2, HT-29, and HCT116), human cervical cancer cells (HeLa), human normal lung cells (BEAS-2B), and human normal […] (MCF-10) were from the State Key Laboratory of Pharmaceutical Biotechnology, Nanjing University. NCI-H460 were cultured in 1640 medium containing 10% fetal bovine serum (FBS). MDA-MB-231 were cultured in L15 medium containing 10% FBS without CO2, and other cell lines were cultured in DMEM medium containing 10% FBS CO2 in the incubator.
(§2) MTT assay was used to identify 14 different cell lines (human lung cancer cells NCI-H460, NCI-H1299, and A549; human breast cancer cells MDA-MB-231, MDA-MB-453, and MCF-7; human liver cancer cells Huh-7 and HepG2; human colon cancer cells coca-2, HT-29, and HCT116; and human cervical cancer cells HeLa) and 2 kinds of normal cell lines (human normal lung epithelial cells BEAS-2B, human normal breast epithelial cells MCF10-A) for quantitative analysis ([15]). In addition, 10-HCPT and palbociclib were used as positive control.
(§3) Cells were harvested during the logarithmic growth phase and seeded into 96-well plates at a density of 2.0×10^3 cells/well. After being incubated for 24 h, the cells were treated with different concentrations of various culture programs for 48 h. Afterwards, 20 μl of MTT solution (5 mg/ml) was added to each well, and the cells were incubated in a 5% CO2 atmosphere at 37°C for another 4 h. Then, the supernatant was discarded, and the formazan crystals were dissolved in 150 μl DMSO. Subsequently, the absorbance was measured at 570 nm via a Tecan microplate reader. The concentration that caused 50% inhibition of cell viability (IC50) values was calculated by GraphPad Software. Triplicate experiments were performed in parallel for each concentration, and the results are shown as the mean ± SD. The inhibitory ratio was calculated using the following formula: inhibitory ratio (%) = [1−(mean absorbance of experiment group)/(mean absorbance of control group)] × 100.

MDA-MB-453 cells = assay: MTT in vitro cytotoxicity, MDA-MB-453; assay type: cell-based, human; conditions: MDA-MB-453 human breast cancer cells, MTT, 48 h; read-out: IC50
Procedure: as §1, §2, §3

MCF10-A cells = assay: MTT in vitro cytotoxicity, MCF10-A normal breast epithelial cells; assay type: cell-based, human; conditions: MCF-10A; MCF10-A human normal breast epithelial cells, MTT, 48 h; read-out: IC50
Procedure: as §1, §2, §3

Hela cells = assay: MTT in vitro cytotoxicity, Hela; assay type: cell-based, human; conditions: Hela human cervical cancer cells, MTT, 48 h; read-out: IC50
Procedure: as §1, §2, §3

Coca-2 cells = assay: MTT in vitro cytotoxicity, Coca-2; assay type: cell-based, human; conditions: Coca-2 human colon cancer cells, MTT, 48 h; read-out: IC50
Procedure: as §1, §2, §3

MDA-MB-231 cells = assay: MTT in vitro cytotoxicity, MDA-MB-231; assay type: cell-based, human; conditions: MDA-MB-231 human breast cancer cells, MTT, 48 h; read-out: IC50
Procedure: as §1, §2, §3

Huh-7 cells = assay: MTT in vitro cytotoxicity, Huh-7; assay type: cell-based, human; conditions: Huh-7 human liver cancer cells, MTT, 48 h; read-out: IC50
Procedure: as §1, §2, §3

[2] = test system: PI3K, AKT, p-PI3K, and p-AKT; assay: Western blot of PI3K/AKT pathway-related proteins in NCI-H460; assay type: cell-based, human; conditions: NCI-H460, 0, 0.5, 1, 2 μM for 24 h
Procedure: (§4) NCI-H460 cells were harvested in logarithmic growth phase and seeded into six-well plates at a density of 5.0 × 10^3 cells/well. After being incubated for 48 h, the cells were harvested with 0.25% Trypsin after exposed to various concentrations of HP-1 (0, 0.5, 1, 2 μM), 10-HCPT (2 μM), and pabocini (2 μM) for 24 h.Then, precooled radio-immunoprecipitation assay (RIPA) lysates [10 mM Tris–HCl, 1 mM EDTA, 1% sodium dodecyl sulfate (SDS), 1 mM dithiothreitol (DTT), 0.1 mM phenylmethylsulfonyl fluoride (PMSF), protease inhibitors, 1% Nonidet P-40, pH 8] were added to them and placed on ice to lyse the cells for 30 min. After centrifugation at 10,000 rpm and 4°C for 10 min, the supernatant was collected to obtain soluble proteins. Lysates were centrifuged at 10,000 rpm for 20 min at 4°C, and the supernatant was collected.
(§5) The absorbance value was measured at 562 nm using a microplate analyzer to calculate the protein content. An equal amount of protein was separated by 10% SDS–polyacrylamide gel electrophoresis (SDS-PAGE) gels and transferred onto PVDF membrane. […] Finally, the membrane was placed on the membrane carrier plate, and the bands were detected with enhanced chemiluminescence reagent to indicate the protein expression.

HCT116 cells = assay: MTT in vitro cytotoxicity, HCT116; assay type: cell-based, human; conditions: HCT-116; HCT116 human colon cancer cells, MTT, 48 h; read-out: IC50
Procedure: as §1, §2, §3

MCF-7 cells = assay: MTT in vitro cytotoxicity, MCF-7; assay type: cell-based, human; conditions: MCF7; MCF-7 human breast cancer cells, MTT, 48 h; read-out: IC50
Procedure: as §1, §2, §3

HT-29 cells = assay: MTT in vitro cytotoxicity, HT-29; assay type: cell-based, human; conditions: HT-29 human colon cancer cells, MTT, 48 h; read-out: IC50
Procedure: as §1, §2, §3

NCI-H1299 cells = assay: MTT in vitro cytotoxicity, NCI-H1299; assay type: cell-based, human; conditions: NCI-H1299 human lung cancer cells, MTT, 48 h; read-out: IC50
Procedure: as §1, §2, §3

HepG2 cells = assay: MTT in vitro cytotoxicity, HepG2; assay type: cell-based, human; conditions: HepG2 human liver cancer cells, MTT, 48 h; read-out: IC50
Procedure: as §1, §2, §3

BEAS-2B cells = assay: MTT in vitro cytotoxicity, BEAS-2B normal lung epithelial cells; assay type: cell-based, human; conditions: BEAS-2B human normal lung epithelial cells, MTT, 48 h; read-out: IC50
Procedure: as §1, §2, §3

[3] = test system: Cyclin D, CDK4, CDK6, Rb, and p-Rb; assay: Western blot of Cyclin D-CDK4/6-Rb pathway proteins in NCI-H460; assay type: cell-based, human; conditions: NCI-H460, 0, 0.5, 1, 2 μM for 24 h
Procedure: as §4, §5

NCI-H460 cells [4] = assay: Annexin V/PI apoptosis by flow cytometry, NCI-H460; assay type: cell-based, human; conditions: same concentration (not given)
Procedure: NCI-H460 cells were harvested in logarithmic growth phase and seeded into six-well plates at a density of 5.0 × 10^3 cells/well. After being incubated for 24 h, the cells were harvested with 0.25% Trypsin after exposed to various culture programs, washed with PBS, and re-suspended in 500 μl binding buffer. The experiment was triply replicated. Then, the cells were stained by adding to 5 μl Annexin V-FITC and 5 μl PI for15 min at 25°C in the dark. Finally, the cells were detected and analyzed using a flow cytometer with FlowJo 7.6.1.

A549 cells = assay: MTT in vitro cytotoxicity, A549; assay type: cell-based, human; conditions: A549 human lung cancer cells, MTT, 48 h; read-out: IC50
Procedure: as §1, §2, §3

With `CC[C@]1(O)C(=O)OCc2c1cc1n(c2=O)Cc2cc3cc(OC(=O)CCCC(=O)N4CCN(c5ccc(Nc6ncc7c(C)c(C(C)=O)c(=O)n(C8CCCC8)c7n6)nc5)CC4)ccc3nc2-1` [HP-1, (R)-4-ethyl-4-hydroxy-3,14-dioxo-3,4,12,14-tetrahydro-1H-pyrano[3’,4’:6,7] indolizino[1,2-b]quinolin-9-yl5-(4-(6-((6-acetyl-8-cyclopentyl-5-methyl-7-oxo-7,8-dihydropyrido[2,3-d]pyrimidin-2-yl)amino)pyridin-3-yl)piperazin-1-yl)-5-oxopentanoate] the IC50 (NCI-H460 cells [1]) was 0.96 ± 0.01 µM, the IC50 (MDA-MB-453 cells) was 5.28 ± 0.81 µM and the IC50 (MCF10-A cells) was 32.4 ± 1.33 µM. It also gave an IC50 (Hela cells) of 5.46 ± 0.08 µM, an IC50 (Coca-2 cells) of 15.2 ± 0.54 µM and an IC50 (MDA-MB-231 cells) of 15.3 ± 2.51 µM. For the same compound, the IC50 (Huh-7 cells) was 9.48 ± 1.59 µM, the “expression of PI3K, AKT, p-PI3K, and p-AKT” value [2] was “decreased” and the IC50 (HCT116 cells) was 17.1 ± 0.31 µM. It also gave an IC50 (MCF-7 cells) of 10.3 ± 1.68 µM, an IC50 (HT-29 cells) of 12.4 ± 1.62 µM and an IC50 (NCI-H1299 cells) of 2.29 ± 0.02 µM. The melting point was 44.5 to 46.4 °C, the IC50 (HepG2 cells) was 2.57 ± 0.42 µM and the IC50 (BEAS-2B cells) was 36.4 ± 0.43 µM. For the same compound, the “Protein expressions of Cyclin D, CDK4, CDK6, Rb, and p-Rb” value [3] was “significantly decreased”, the “Q1 (annexin V/PI quadrant)” value (NCI-H460 cells [4]; NCI-H460, 12h) was 0.32 and the “Q2 (annexin V/PI quadrant)” value (NCI-H460 cells [4]; NCI-H460, 12h) was 9.93. For the same compound, the “Q3 (annexin V/PI quadrant)” value (NCI-H460 cells [4]; NCI-H460, 12h) was 13.4, the “Q4 (annexin V/PI quadrant)” value (NCI-H460 cells [4]; NCI-H460, 12h) was 76.4 and the “Q1 (annexin V/PI quadrant)” value (NCI-H460 cells [4]; NCI-H460, 24h) was 0.80. The “Q2 (annexin V/PI quadrant)” value (NCI-H460 cells [4]; NCI-H460, 24h) was 33.7, the “Q3 (annexin V/PI quadrant)” value (NCI-H460 cells [4]; NCI-H460, 24h) was 31.4 and the “Q4 (annexin V/PI quadrant)” value (NCI-H460 cells [4]; NCI-H460, 24h) was 34.0. The “Q1 (annexin V/PI quadrant)” value (NCI-H460 cells [4]; NCI-H460, 36h) was 0.66, the “Q2 (annexin V/PI quadrant)” value (NCI-H460 cells [4]; NCI-H460, 36h) was 61.8 and the “Q3 (annexin V/PI quadrant)” value (NCI-H460 cells [4]; NCI-H460, 36h) was 33.6. For the same compound, the “Q4 (annexin V/PI quadrant)” value (NCI-H460 cells [4]; NCI-H460, 36h) was 3.91 and the IC50 (A549 cells) was 3.41 ± 0.22 µM.
